Experimental data from patent US9982005B2, “Macrolides and methods of their preparation and use” (President and Fellows of Harvard College, priority 2013, dated 2018).
In brackets after ≈: the same amount, converted by molar mass. Where two headings read alike, the source gives them in different places.

What was measured:
Assay type in all cases: cell-based
S. aureus strains = assay: MIC against S. aureus strains (Table M7); conditions: Staphylococcus aureus
Method in brief: (§1)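 MICs determined by CLSI standard broth dilution procedures, with azithromycin run as control macrolide.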

A. baumannii strains = assay: MIC against A. baumannii strains (Table M8); conditions: Acinetobacter baumannii, BAA747, A. baumannii BAA747-1
E. coli strains = assay: MIC against E. coli strains (Table M7); conditions: Escherichia coli, ATCC25922, E. coli ATCC 25922
Method in brief: as §1

[1] = test system: SA101 S. aureus ATCC29213; assay: broth dilution MIC, S. aureus SA101; conditions: Staphylococcus aureus, ATCC29213, SA101 S. aureus ATCC29213; read-out: MIC
Excerpt: (§2) We have collected MIC data for a total of 50 novel macrolides that this platform has produced against over 21 unique strains of B. subtilis, E. coli, S. aureus, S. pneumoniae, and H. influenzae, including several multidrug-resistant strains, with a special focus on macrolide resistant mechanisms (vide supra). Azithromycin was included as a control macrolide. CLSI standard procedures for broth dilution MIC determination were used. […] These genotypes can be constitutive or inducible. The finding that C4-epi (unnatural) isomers of the “azaketolide” macrolide class have enhanced activities relative to C4 natural isomers is very exciting.

E. faecalis strains = assay: MIC against E. faecalis strains (Table M8); conditions: Enterococcus faecalis, E. faecalis 29212
S. pneumoniae strains = assay: MIC against S. pneumoniae strains (Tables M7, M8); conditions: Streptococcus pneumoniae
Excerpt: CLSI standard procedures for broth dilution MIC determination were used. […] These genotypes can be constitutive or inducible.

EC882 E. coli imp = assay: broth dilution MIC, E. coli EC882; conditions: Escherichia coli
Excerpt: as §2

BS1725 B. subtilis ermC = assay: broth dilution MIC, B. subtilis BS1725; conditions: Bacillus subtilis
Excerpt: as §2

EC878 E. coli tolC = assay: broth dilution MIC, E. coli EC878; conditions: Escherichia coli
Excerpt: as §2

[2] = test system: BS1723 B. subtilis BS168 WT wild type; assay: broth dilution MIC, B. subtilis BS1723; conditions: Bacillus subtilis, BS1723 B. subtilis BS168 WT wild type; read-out: MIC
Excerpt: as §2

K. pneumoniae strains = assay: MIC against K. pneumoniae strains (Table M8); conditions: Klebsiella pneumoniae, K. pneumoniae 10031
EC107 E. coli ATCC25922 = assay: broth dilution MIC, E. coli EC107; conditions: Escherichia coli, read-out: MIC
Excerpt: as §2

H. influenzae strains = assay: MIC against H. influenzae strains (Table M8); conditions: Haemophilus influenzae
Method in brief: as §1

[3] = test system: S. aureus (Newman, clinical isolate); assay: MIC, S. aureus Newman; conditions: Staphylococcus aureus
Excerpt: as §2

E. coli (MC4100) = assay: MIC, E. coli MC4100; conditions: Escherichia coli
Excerpt: as §2

[4] = S. aureus (Neuman, clinical isolate), round 2
[5] = S. aureus (Newman, clinical isolate), round 1

For CC[C@H]1OC(=O)[C@H](C)C(=O)C[C@@H](O[C@@H]2OC(C)CC(N(C)C)C2O)[C@@](C)(OC)C[C@@H](C)CN[C@H](C)[C@H]2N(CCCCn3cc(-c4cccc(N)c4)nn3)C(=O)O[C@]12C (stereo partly shown) [FSM-30502], the MIC (S. aureus strains; ATCC29213, S. aureus ATCC 29213, read-out: MIC S. aureus (ATCC 29213)) was > 32 µg/mL, the MIC (S. aureus strains; S. aureus 506, read-out: MIC S. aureus (506)) was > 32 µg/mL and the MIC (S. aureus strains; S. aureus 1708, read-out: MIC S. aureus (1708)) was > 32 µg/mL. For the same compound, the MIC (S. aureus strains; USA300, S. aureus USA300, read-out: MIC S. aureus (USA300)) was > 32 µg/mL, the MIC (A. baumannii strains) was > 32 µg/mL and the MIC (E. coli strains) was > 32 µg/mL. For the same compound, the MIC [1] was > 32 µg/mL, the MIC (E. faecalis strains) was > 32 µg/mL and the MIC (S. pneumoniae strains; S. pneumoniae 160, read-out: MIC S. pneumonae (160)) was > 32 µg/mL. The MIC (S. pneumoniae strains; S. pneumoniae 1509, read-out: MIC S. pneumoniae (1509)) was > 32 µg/mL, the MIC (S. pneumoniae strains; S. pneumoniae 1533, read-out: MIC S. pneumoniae (1533)) was > 32 µg/mL and the MIC (S. pneumoniae strains; S. pneumoniae 1537, read-out: MIC S. pneumoniae (1537)) was > 32 µg/mL. The MIC (S. pneumoniae strains; S. pneumoniae 49619, read-out: MIC S. pneumoniae (49619)) was > 32 µg/mL, the MIC (EC882 E. coli imp) was > 32 µg/mL and the MIC (BS1725 B. subtilis ermC; BS1725 B. subtilis ermC (+ery)) was > 32 µg/mL. The MIC (BS1725 B. subtilis ermC; BS1725 B. subtilis ermC (−ery)) was > 32 µg/mL, the MIC (EC878 E. coli tolC) was > 32 µg/mL and the MIC [2] was > 32 µg/mL. For the same compound, the MIC (K. pneumoniae strains) was > 32 µg/mL, the MIC (EC107 E. coli ATCC25922) was > 32 µg/mL and the MIC (H. influenzae strains; H. influenzae 49247, read-out: MIC H. influenzae (49247)) was 16 µg/mL (≈ 19.7 µM). For the same compound, the MIC (H. influenzae strains; H. influenzae 49766, read-out: MIC H. influenzae (49766)) was > 32 µg/mL.
With CC[C@H]1OC(=O)[C@H](C)C(=O)[C@H](C)[C@@H](O[C@@H]2OC(C)CC(N(C)C)C2O)/C(C)=C/CN[C@H](C)[C@H]2N(CCCCn3cc(-c4cccc(N)c4)nn3)C(=O)O[C@]12C (stereo partly shown) [FSM-30624] the MIC [3, 4] was > 32 µg/mL and the MIC (E. coli (MC4100); round 2, read-out: MIC) was > 32 µg/mL.
For CC[C@H]1OC(=O)[C@H](C)C(=O)[C@H](C)[C@@H](O[C@@H]2OC(C)CC(N(C)C)C2O)/C(C)=C/CN[C@H](C)[C@H]2N(CCCCn3cc(-c4ccccn4)nn3)C(=O)O[C@]12C (stereo partly shown) [FSM-30625], the MIC [3, 4] was > 32 µg/mL and the MIC (E. coli (MC4100); round 2, read-out: MIC) was > 32 µg/mL.
In the case of CC[C@H]1OC(=O)[C@H](C)C(=O)[C@H](C)[C@@H](O[C@@H]2OC(C)CC(N(C)C)C2O)[C@](C)(OC)C[C@@H](C)CN[C@H](C)[C@H]2N(CCCn3cc(-c4ccccn4)nn3)C(=O)O[C@]12C (stereo partly shown) [FSM-40348], the MIC [3, 5] is reported as 8 µg/mL (≈ 10 µM) and the MIC (E. coli (MC4100); round 1, read-out: MIC) is reported as > 32 µg/mL.
CC[C@H]1OC(=O)[C@H](C)C(=O)[C@H](C)[C@@H](O[C@@H]2OC(C)CC(N(C)C)C2O)[C@](C)(OC)C[C@@H](C)CN[C@H](C)[C@H]2N(CCCCCn3cc(-c4ccccn4)nn3)C(=O)O[C@]12C (stereo partly shown) [FSM-40350] was tested, and the MIC [3, 5] was 2 µg/mL (≈ 2.42 µM) and the MIC (E. coli (MC4100); round 1, read-out: MIC) was 16 µg/mL (≈ 19.3 µM).
CC[C@H]1OC(=O)CC(=O)[C@H](C)[C@@H](O[C@@H]2OC(C)CC(N(C)C)C2O)[C@](C)(OC)C[C@@H](C)CN[C@H](C)[C@H]2N(CCCCn3cc(-c4ccccn4)nn3)C(=O)O[C@]12C (stereo partly shown) [FSM-56139] showed an MIC [3, 4] of 16 µg/mL (≈ 20 µM) and an MIC (E. coli (MC4100); round 2, read-out: MIC) of 32 µg/mL (≈ 40 µM).
CC[C@H]1OC(=O)[C@H](Cc2ccccc2)C(=O)[C@H](C)[C@@H](O[C@@H]2OC(C)CC(N(C)C)C2O)[C@](C)(OC)C[C@@H](C)CN[C@H](C)[C@H]2N(CCCCn3cc(-c4cccc(N)c4)nn3)C(=O)O[C@]12C (stereo partly shown) [FSM-56158] gave an MIC [3, 4] of 8 µg/mL (≈ 8.85 µM) and an MIC (E. coli (MC4100); round 2, read-out: MIC) of 32 µg/mL (≈ 35.4 µM).
